US20260273107A1, “COMPOUND PHARMACEUTICAL PREPARATION CONTAINING OIL COMPONENT COMPRISING POLYOXYETHYLENE STRUCTURE” (CHUGAI SEIYAKU KABUSHIKI KAISHA, priority 2022, published 2026)
In brackets after ≈: the same amount, converted by molar mass. Where two headings read alike, the source gives them in different places. Numbered stars: 1 amine (or outer) side, 2 acyl side, 3 side chain; on linkers, the order of the positions; unused ones are H or OH. Bridge positions count the residues as written; N and C are the ends. Square brackets hold non-standard residues; d marks the D form. Peptide text beside a SMILES is read from it. * marks the point of attachment. hPhe(3-Cl-4-CF3) = N[C@@H](CCc1ccc(C(F)(F)F)c(Cl)c1)C(=O)O; X1 = CN(C(CC(=O)[*:2])C(=O)C1CCCCC1)[*:1]; Bta = N[C@@H](Cc1csc2ccccc12)C(=O)O; NMeCha = CN[C@@H](CC1CCCCC1)C(=O)O; NMeChg = CN[C@H](C(=O)O)C1CCCCC1; NMeF = CN[C@@H](Cc1ccccc1)C(=O)O; NMeI = CC[C@H](C)[C@H](NC)C(=O)O; NMeL = CN[C@@H](CC(C)C)C(=O)O; NMeV = CN[C@H](C(=O)O)C(C)C; NMeAbu = CC[C@H](NC)C(=O)O; NMeA = CN[C@@H](C)C(=O)O; Piperidide = C1CCN(*)CC1; Ac5c = NC1(C(=O)O)CCCC1; Sar = CNCC(=O)O; tBu = CC(C)(C)*

How the values were obtained:
[1] = In vitro solubility evaluation in 50 mM phosphate buffer solution (PPB, pH 6.5), room temperature (Example 2-1); format: physicochemical; conditions: 50 mM phosphate buffer pH 6.5, room temperature, shaking 24 hours, no surfactant; read-out: solubilities, PPb
Procedure: (§1) To lyophilized powder of the compound, a 50 mM phosphate buffer solution (PPB: Phosphate buffer, pH 6.5) was added, and after shaking (at room temperature, 1800 rpm, for 24 hours), the mixed solution was filtered through a filter, and the compound concentration of the filtrate was measured by LC/MS/MS. […] To the compound powder, Cremophor EL (CreEL) (manufactured by Sigma-Aldrich Co., Ltd., “Kolliphor EL”, generic name: polyoxyethylene castor oil, average number of moles of ethylene oxide added 35), Vitamin E TPGS (manufactured by Sigma-Aldrich Co., Ltd.), an aqueous solution containing 1% TW80 (manufactured by Nacalai Tesque, Inc.), an aqueous solution containing 1.5% Ploxamer 188 (manufactured by BASF SE), or an aqueous solution containing 0.5% Triton X-100 was added, the mixed solution was stirred (at room temperature, for 20 hours) with a stirrer, and then filtered through a filter, and the compound concentration of the filtrate was measured by LC/UV. Solubility (μg/mL) was calculated from the measured compound concentration. […] From the above, CreEL and Vitamin E TPGS were selected as substrates that improve solubility independently of compounds, and evaluation of oral absorbability was performed.

[2] = Solubility in the presence of a surfactant (Example 2-1); format: physicochemical; conditions: room temperature, stirred 20 hours
Procedure: as §1

[3] = Evaluation of Caco-2 membrane permeability; format: in vitro ADME; conditions: human, Apical FaSSIF/HBSS pH 6.0 to Basal HBSS 4% BSA pH 7.4, 180 minutes, after 18 to 24 hours preincubation, read-out: Caco2 (Papp)
Procedure: The permeability coefficient (Caco-2 Papp (cm/sec)) is calculated using a numerical expression 1.
[formula] • where dQ/dt is the permeation rate of the drug (amount of drug appearing on the Basal side per unit time), S is the total cell surface area, and C1 (0) is the concentration of drug added on the Apical side.
Caco-2 cells were cultured on 96-well Transwell for 3 weeks, then DMEM, FaSSIF (1% DMSO), and the compound were added to the Apical side, DMEM was added to the Basal side, and the cells were preincubated under 5% CO2 at 37° C. with shaking at 80 rpm for 18 to 24 hours. After the preincubation, the preincubation solutions on the Apical side and Basal side were sucked off and washed, a FaSSIF/HBSS buffer solution (1% DMSO) (pH 6.0) containing the compound was added to the Apical side, a HBSS buffer solution (4% BSA) (pH 7.4) was added to the Basal side, and measurement of membrane permeability was started. Each well was shaken under 5% CO2 at 37° C. and 80 rpm, and at 180 minutes after the start of shaking, a sample on the Basal side was collected, and the permeation amount was measured by LC/MS. From the permeation amount, the membrane permeability coefficient (Papp) was calculated. Note that the description “Caco-2 (cm/sec)” in the column in the table herein is used synonymously with “Papp (cm/sec)”.

[4] = Solubility of cyclic peptide compound in 50 mM phosphate buffer solution (pH 6.5), 37° C. (Example 3-3); format: physicochemical; conditions: shaking 22 to 24 hours, read-out: solubility in 50 mM phosphate buffer solution (PPB)
Procedure: Evaluation of the solubility of the cyclic peptide compound was performed. To lyophilized powder of the compound, a 50 mM phosphate buffer solution (PPB: Phosphate buffer, pH 6.5) was added, and after shaking (at 37° C., 1800 rpm, for 22 to 24 hours), the mixed solution was filtered through a filter, and the compound concentration of the filtrate was measured by LC/MS/MS. Solubility was calculated from the measured compound concentration. The solubilities of the compounds 3, 4, 6, 7, and 8 were 11 μg/mL, 1 μg/mL, 1 μg/mL, 15 μg/mL, and 5 μg/mL, respectively.

[5] = Solubility in aqueous solution containing 0.3% or 1% Cremophor EL (Example 3-3); format: physicochemical; conditions: 25° C., 22 to 24 hours
Procedure: Evaluation of the solubility of the cyclic peptide compound in the presence of a surfactant was performed. To lyophilized powder of the compound, an aqueous solution containing 0.3% or 1% Cremophor EL (CreEL) was added, and after shaking (at 25° C., 1000 rpm, for 22 to 24 hours), the mixed solution was filtered through a filter, and the compound concentration of the filtrate was measured by LC/UV. Solubility (μg/mL) was calculated from the measured compound concentration.

[6] = 0.5% Triton X-100 aqueous solution, read-out: solubilities, TritonX-100 (0.5% aqueous solution)
[7] = 1% Cremophor EL aqueous solution, read-out: solubilities, CreEL (1% aqueous solution)
[8] = 1% TW80 aqueous solution, read-out: solubilities, TW80 (1% aqueous solution)
[9] = 1% Vitamin E TPGS aqueous solution, read-out: solubilities, VitaminE TPGS (1% aqueous solution)
[10] = 1.5% Poloxamer 188 aqueous solution, read-out: solubilities, Poloxamer 188 (1.5% aqueous solution)
[11] = 0.3% Cremophor EL aqueous solution, read-out: solubility, 0.3% Cremophor EL
[12] = 1% Cremophor EL aqueous solution, read-out: solubility, 1% Cremophor EL

SMILES | solubility at 24 h [1] [µg/mL] | solubility at 20 h [2, 6] [µg/mL] | solubility at 20 h [2, 7] [µg/mL] | solubility at 20 h [2, 8] [µg/mL] | solubility at 20 h [2, 9] [µg/mL] | solubility at 20 h [2, 10] [µg/mL] | Papp A→B at 180 min [3] [×10⁻⁶ cm/s] | solubility [5, 11] [µg/mL] | solubility [5, 12] [µg/mL] | solubility [4] [µg/mL]
CC[C@H](C)[C@@H]1NC(=O)[C@H](CC(C)C)N(C)C(=O)CC(C(=O)C2CCCCC2)N(C)C(=O)[C@H](C2CCCCC2)N(C)C(=O)C2(CCCC2)NC(=O)[C@@H]2CCCN2C(=O)[C@H](CCc2ccc(C(F)(F)F)c(Cl)c2)NC(=O)CN(C)C(=O)[C@H](CC2CCCCC2)N(C)C(=O)CN(C)C(=O)CN(C)C1=O (stereo partly shown) [Compound 1] (cyclo([Ac5c][NMeChg][X1][NMeL]I[Sar][Sar][NMeCha][Sar][hPhe(3-Cl-4-CF3)]P)) | 1 (≈ 0.694 µM) | 743 | 3380 | 1270 | 3100 | < 13 | 0.71 | – | – | –
CC(C)C[C@@H]1NC(=O)[C@H](Cc2ccccc2)N(C)C(=O)[C@@H](C(C)C)NC(=O)C[C@@H](C(=O)N2CCCCC2)NC(=O)[C@H](C(C)C)N(C)C(=O)[C@H](Cc2ccccc2)N(C)C(=O)[C@H](COC(C)(C)C)NC(=O)[C@H](CC(C)C)N(C)C(=O)CN(C)C(=O)[C@H]([C@@H](C)O)NC(=O)[C@H](CC(C)C)N(C)C1=O [Compound 3] ([dV][NMeF]L[NMeL]T[Sar][NMeL]S(tBu)[NMeF][NMeV]D-Piperidide; lactam N-11) | – | – | – | – | – | – | 4.07 | 101 (≈ 72.2 µM) | 395 (≈ 282 µM) | 11 (≈ 7.86 µM)

The next lines start with results.

solubility at 24 h [1] [µg/mL] | solubility at 20 h [2, 6] [µg/mL] | solubility at 20 h [2, 7] [µg/mL] | solubility at 20 h [2, 8] [µg/mL] | solubility at 20 h [2, 9] [µg/mL] | solubility at 20 h [2, 10] [µg/mL] | Papp A→B at 180 min [3] [×10⁻⁶ cm/s] | solubility [5, 11] [µg/mL] | solubility [5, 12] [µg/mL] | SMILES | solubility [4] [µg/mL]
11 (≈ 7.94 µM) | 498 | 1050 | 707 | 1950 | 31 | 5.99 | – | – | CC[C@H](C)[C@H]1C(=O)N[C@@H](COC(C)(C)C)C(=O)N(C)[C@@H](Cc2ccccc2)C(=O)N(C)[C@@H](C(C)C)C(=O)N[C@H](C(=O)N2CCCCC2)CC(=O)N(C)[C@@H](C)C(=O)N(C)[C@@H](Cc2ccccc2)C(=O)N[C@@H](CC(C)C)C(=O)N(C)[C@@H](CC(C)C)C(=O)N[C@@H]([C@@H](C)O)C(=O)N(C)CC(=O)N1C [Compound 2] ([NMeA][NMeF]L[NMeL]T[Sar][NMeI]S(tBu)[NMeF][NMeV]D-Piperidide; lactam N-11) | –
– | – | – | – | – | – | 1.45 | 214 (≈ 149 µM) | 789 (≈ 550 µM) | CC(C)C[C@@H]1NC(=O)[C@H](Cc2ccccc2)N(C)C(=O)[C@H](COC(C)(C)C)NC(=O)[C@H](Cc2ccccc2)N(C)C(=O)[C@H](C)N(C)C(=O)[C@H](CC(C)C)N(C)C(=O)[C@@H](C)NC(=O)C[C@@H](C(=O)N2CCCCC2)NC(=O)[C@H](Cc2ccccc2)N(C)C(=O)[C@H]([C@@H](C)O)NC(=O)[C@H](CC(C)C)N(C)C1=O [Compound 4] ([dA][NMeL][NMeA][NMeF]S(tBu)[NMeF]L[NMeL]T[NMeF]D-Piperidide; lactam N-11) | 1 (≈ 0.697 µM)
– | – | – | – | – | – | 1.42 | 295 (≈ 209 µM) | 1110 (≈ 785 µM) | CC[C@H]1C(=O)N[C@@H](COC(C)(C)C)C(=O)N(C)[C@@H](Cc2ccccc2)C(=O)N(C)[C@@H](C)C(=O)N[C@H](C(=O)N2CCCCC2)CC(=O)N[C@H](CC(C)C)C(=O)N(C)[C@@H](CC(C)C)C(=O)N[C@@H](Cc2csc3ccccc23)C(=O)N(C)[C@@H](CC(C)C)C(=O)N[C@@H]([C@@H](C)O)C(=O)N(C)CC(=O)N1C [Compound 5] ([dL][NMeL][Bta][NMeL]T[Sar][NMeAbu]S(tBu)[NMeF][NMeA]D-Piperidide; lactam N-11) | –
